Data published in paper PMC7354843 (Journal of medicinal chemistry, 2020).

Experiment: In vivo pharmacokinetic study, plasma and liver, single oral dose in mice
Details: male, ICR, mouse, plasma, 80 mg/kg

For `O=c1c2ccc(Oc3ccc(OC(F)(F)F)cc3)cc2[nH]c2cc(Cl)cc(F)c12` [Compound 26, 3-Chloro-1-fluoro-6-(4-(trifluoromethoxy)phenoxy)acridin-9(10H)-one], which AUC(0-inf) is on record?
The AUC(0-inf) was 508 ng·h/mL.

And the Cmax?
Its Cmax is 17.2 ng/mL.
